The values that follow come from patent publication US4166859A, “2-Bromo-6-fluoro-N-(2-imidazolidinylidene)-benzamine and salts thereof and the use to treat hypertension” (Boehringer Ingelheim GmbH, priority 1976, dated 1979).

SMILES strings stand for the structures. Counter-ions that a name gives are not always drawn.

A short description of series [1]: pKa-value. The series is classed as physicochemical.
The test system of series [2] is blood pressure. The series is described as follows: Hypotensive activity (blood pressure reduction) in rabbits under urethane anesthesia, i.v. The note with it: for ED (20 mm Hg): Oryctolagus cuniculus, iv, urthane anesthesia, dose producing lasting reduction of 20 mm Hg of blood pressure, arteria carotis, read-out: Hypotensive ED20 in rabbits. The series is classed as in vivo. The procedure:
The hypotensive activity of the test compounds was determined on a statistically significant number of rabbits under urthane anesthesia. The blood pressure of the test animals was continuously measured in the arteria carotis by means of a mercury manometer before and after the i.v. administration of the test compound at varying dosage levels. The ED20 was determined, that is, the dose which produced a lasting reduction of 20 mm Hg of the blood pressure.

Series [3] is described as follows: Stomach juice secretion inhibition, method of Shay et al. To be noted: rat, in vivo; dose reducing volume of stomach juice secreted by 50% and total acidity by 50%; measure of dryness of the mouth; read-out: Stomach juice secretion inhibiting ED50 in rats. The procedure:
The effect on the stomach juice secretion was determined on rats by the standard test method of Shay et al, Gastroenterology 5, 43 (1943), and the ED50 was calculated for each test compound, that is, the dose which reduces the volume of stomach juice secreted over a given amount of time by 50%, and at the same time produces a 50% reduction in the total acidity of the secreted stomach juice volume.

A short description of series [4]: Hygroscopicity of acid addition salts. The series is classed as physicochemical.

`Fc1cccc(Br)c1NC1=NCCN1` [2-bromo-6-fluoro-N-(2-imidazolidinylidene)-benzamine monohydrochloride]: the pKa in series [1] turned out to be 8.2. Besides, the ED (20 mm Hg) in series [2] was found to be 0.01 mg/kg. In addition, the ED50 in series [3] turned out to be 0.1 mg/kg. `Fc1cccc(Br)c1N=C1NCCN1` [Benzoate]: the hygroscopicity entry in series [4] is listed as “slightly hygroscopic”. With `Fc1cccc(Br)c1N=C1NCCN1` [Citrate], the hygroscopicity entry in series [4] is “hygroscopic”. In the case of `Clc1cccc(Cl)c1NC1=NCCN1` [Clonidine . HCl, 2-(2,6-dichloroanilino)-2-imidazoline, reference compound], the ED (20 mm Hg) in series [2] is 0.01 mg/kg. Besides, the ED50 in series [3] stood at 0.04 mg/kg. Consider `Fc1cccc(Br)c1N=C1NCCN1` [Hydrobromide], for which, in series [4], the hygroscopicity result was “hygroscopic”. Consider `Fc1cccc(Br)c1N=C1NCCN1` [Methanesulfonate], for which the hygroscopicity entry in series [4] was “hygroscopic”. As for `Fc1cccc(Br)c1N=C1NCCN1` [Nitrate], the hygroscopicity result in series [4] is on record as “slightly hygroscopic”. The same measure, in the same setting: the value for `Fc1cccc(Br)c1N=C1NCCN1` [Oxalate] was “hygroscopic”; that for `Fc1cccc(Br)c1N=C1NCCN1` [Tartrate] was “hygroscopic”; that for `Fc1cccc(Br)c1N=C1NCCN1` [Tosylate] was “hygroscopic”. Consider `Clc1cccc(Cl)c1NC1=NCCN1` [clonidine, 2-(2,6-dichloroanilino)-2-imidazoline], for which, in series [2] (comparison with 2-bromo-6-fluoro-N-(2-imidazolidinylidene)-benzamine), the “antihypertensive efficacy relative to the invention compound” value is on record as “equal antihypertensive efficacy”.
